Activity calls are given as the source filed them. The calls are words filed in the database; no cut-off is given here.
Assays:
BMDM [1] = experiment: Inhibition of RANKL-induced mouse BMDM cell differentiation assessed as TRAP-positive MNCs at 0.1 to 30 uM preincubated for 5 mins followed by RANKL/M-CSF addition measured after 4 days by TRAP-staining based assay; type: functional
[2] = Inhibition of RANKL-induced NFATc1 expression in mouse BMDM cells assessed as ratio of NFATc1 to actin at 10 uM preincubated with cells followed RANKL/M-CSF addition measured after 1day by Western blot analysis (reference value: 281); type: functional
[3] = target: MAP kinase p38 (Mus musculus) (UniProt P47811+O08911+Q9WUI1+Q9Z1B7); experiment: Inhibition of RANKL-induced p38 phosphorylation in mouse BMDM cells assessed as ratio of phosphorylated p38 to p38 at 10 uM preincubated for 5 mins followed RANKL/M-CSF addition for 5 mins by Western blot analysis (reference value: 24.7); type: cell-based
[4] = target: Mitogen-activated protein kinase 3 (Mus musculus) (UniProt Q63844); experiment: Inhibition of RANKL-induced ERK1 phosphorylation in mouse BMDM cells assessed as ratio of phosphorylated ERK1 to ERK1 at 10 uM preincubated for 5 mins followed RANKL/M-CSF addition for 5 mins by Western blot analysis (reference value: 2.9); type: cell-based
Sequence of Mitogen-activated protein kinase 3 (Mus musculus) (Q63844 whole entry): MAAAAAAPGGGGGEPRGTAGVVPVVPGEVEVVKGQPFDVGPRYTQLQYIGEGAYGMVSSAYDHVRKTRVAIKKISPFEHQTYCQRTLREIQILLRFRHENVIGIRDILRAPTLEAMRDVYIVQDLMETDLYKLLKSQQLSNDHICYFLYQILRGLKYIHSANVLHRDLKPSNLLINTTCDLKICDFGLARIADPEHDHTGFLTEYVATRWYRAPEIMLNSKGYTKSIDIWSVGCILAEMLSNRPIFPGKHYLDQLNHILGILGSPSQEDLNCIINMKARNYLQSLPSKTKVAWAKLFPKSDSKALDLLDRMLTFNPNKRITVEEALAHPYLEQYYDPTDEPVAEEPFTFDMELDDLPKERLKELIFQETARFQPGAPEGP

BMDM [5] = experiment: Inhibition of RANKL-induced DC-STAMP mRNA expression in mouse BMDM cells at 10 uM preincubated with cells followed by RANKL addition measured after 2 days by real-time PCR analysis; type: functional, cell-based
[6] = Inhibition of RANKL-induced c-Fos expression in mouse BMDM cells assessed as ratio of c-Fos to actin at 10 uM preincubated with cells followed RANKL/M-CSF addition measured after 1 day by Western blot analysis (reference value: 6.4); type: functional
BMDM [7] = experiment: Inhibition of RANKL-induced mouse BMDM cell differentiation assessed as TRAP-positive MNCs at 0.1 to 10 uM preincubated for 5 mins followed by RANKL/M-CSF addition measured after 4 days by TRAP-staining based assay; type: functional
[8] = target: Mitogen-activated protein kinase 1 (Mus musculus) (UniProt P63085); experiment: Inhibition of RANKL-induced ERK2 phosphorylation in mouse BMDM cells assessed as ratio of phosphorylated ERK2 to ERK2 at 10 uM preincubated for 5 mins followed RANKL/M-CSF addition for 5 mins by Western blot analysis (reference value: 2.6); type: cell-based
Sequence of Mitogen-activated protein kinase 1 (Mus musculus) (P63085 whole entry): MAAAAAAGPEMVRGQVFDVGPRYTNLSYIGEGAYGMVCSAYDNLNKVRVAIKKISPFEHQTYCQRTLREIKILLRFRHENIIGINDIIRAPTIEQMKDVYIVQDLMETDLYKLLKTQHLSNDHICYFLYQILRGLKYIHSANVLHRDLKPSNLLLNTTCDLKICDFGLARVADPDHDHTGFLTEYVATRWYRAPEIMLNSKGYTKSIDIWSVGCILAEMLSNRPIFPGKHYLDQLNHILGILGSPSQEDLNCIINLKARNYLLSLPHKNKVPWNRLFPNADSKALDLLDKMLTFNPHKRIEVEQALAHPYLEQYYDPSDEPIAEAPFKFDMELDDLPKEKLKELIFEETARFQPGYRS

BMDM [9] = experiment: Inhibition of RANKL-induced TRAP mRNA expression in mouse BMDM cells at 10 uM preincubated with cells followed by RANKL addition measured after 2 days by real-time PCR analysis; type: functional, cell-based
C2C12 [10] = experiment: Induction of BMP2-induced osteoblast differentiation in mouse C2C12 cells assessed as increase in ALP mRNA expression at 10 uM preincubated with cells followed by BMP2 addition measured after 3 days by real-time PCR analysis; type: functional, cell-based
BMDM [11] = experiment: Inhibition of RANKL-induced mouse BMDM cell differentiation assessed as reduction in TRAP activity at 0.1 to 30 uM using p-nitrophenyl phosphate as substrate preincubated for 5 mins followed by RANKL/M-CSF addition measured after 4 days; type: functional, cell-based
BMDM [12] = experiment: Inhibition of RANKL-induced NFATc1 mRNA expression in mouse BMDM cells at 10 uM preincubated with cells followed by RANKL addition measured after 2 days by real-time PCR analysis; type: functional, cell-based
BMDM [13] = experiment: Inhibition of RANKL-induced cathespin K mRNA expression in mouse BMDM cells at 10 uM preincubated with cells followed by RANKL addition measured after 2 days by real-time PCR analysis; type: functional, cell-based
Mus musculus [14] = species: Mus musculus; experiment: Cytotoxicity against mouse C2C12 cells assessed as reduction cell viability after 3 days in presence of BMP2 by CCK-8 assay; type: toxicity, cell-based; conditions: c2c12, 72 h
BMDM [15] = experiment: Inhibition of RANKL-induced c-Src mRNA expression in mouse BMDM cells at 10 uM preincubated with cells followed by RANKL addition measured after 2 days by real-time PCR analysis; type: functional, cell-based
Mus musculus [16] = species: Mus musculus; experiment: Cytotoxicity against mouse BMDM cells assessed as reduction in cell viability up to 10 uM after 3 days in presence of M-CSF by CCK-8 assay; type: toxicity, cell-based; conditions: 72 h
[17] = target: Mitogen-activated protein kinase 9 (Mus musculus) (UniProt Q9WTU6); experiment: Inhibition of RANKL-induced JNK2 phosphorylation in mouse BMDM cells assessed as ratio of phosphorylated JNK2 to JNK2 at 10 uM preincubated for 5 mins followed RANKL/M-CSF addition for 5 mins by Western blot analysis (reference value: 5.2); type: cell-based
Sequence of Mitogen-activated protein kinase 9 (Mus musculus) (Q9WTU6 whole entry): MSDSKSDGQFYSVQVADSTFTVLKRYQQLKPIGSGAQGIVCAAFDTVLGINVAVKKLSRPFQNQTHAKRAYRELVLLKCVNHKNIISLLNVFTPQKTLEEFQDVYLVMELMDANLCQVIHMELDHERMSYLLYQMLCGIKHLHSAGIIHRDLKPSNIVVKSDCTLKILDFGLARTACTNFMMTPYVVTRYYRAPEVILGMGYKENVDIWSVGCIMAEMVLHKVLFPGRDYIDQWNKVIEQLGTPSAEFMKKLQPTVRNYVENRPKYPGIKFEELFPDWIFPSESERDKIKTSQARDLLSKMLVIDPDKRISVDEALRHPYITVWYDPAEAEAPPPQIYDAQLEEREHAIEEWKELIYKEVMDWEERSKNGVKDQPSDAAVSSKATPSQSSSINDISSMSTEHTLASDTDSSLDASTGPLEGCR

BMDM [18] = experiment: Inhibition of RANKL-induced OSCAR mRNA expression in mouse BMDM cells at 10 uM preincubated with cells followed by RANKL addition measured after 2 days by real-time PCR analysis; type: functional, cell-based
Osteoclast = experiment: Inhibition of RANKL-induced mouse BMDM cell differentiation assessed as reduction in TRAP-positive multi-nucleated osteoclast cells preincubated for 5 mins followed by RANKL/M-CSF addition measured after 4 days by light microscopic analysis; type: functional, cell-based
[19] = target: Mitogen-activated protein kinase 8 (Mus musculus) (UniProt Q91Y86); experiment: Inhibition of RANKL-induced JNK1 phosphorylation in mouse BMDM cells assessed as ratio of phosphorylated JNK1 to JNK1 at 10 uM preincubated for 5 mins followed RANKL/M-CSF addition for 5 mins by Western blot analysis (reference value: 3.7); type: cell-based
Sequence of Mitogen-activated protein kinase 8 (Mus musculus) (Q91Y86 whole entry): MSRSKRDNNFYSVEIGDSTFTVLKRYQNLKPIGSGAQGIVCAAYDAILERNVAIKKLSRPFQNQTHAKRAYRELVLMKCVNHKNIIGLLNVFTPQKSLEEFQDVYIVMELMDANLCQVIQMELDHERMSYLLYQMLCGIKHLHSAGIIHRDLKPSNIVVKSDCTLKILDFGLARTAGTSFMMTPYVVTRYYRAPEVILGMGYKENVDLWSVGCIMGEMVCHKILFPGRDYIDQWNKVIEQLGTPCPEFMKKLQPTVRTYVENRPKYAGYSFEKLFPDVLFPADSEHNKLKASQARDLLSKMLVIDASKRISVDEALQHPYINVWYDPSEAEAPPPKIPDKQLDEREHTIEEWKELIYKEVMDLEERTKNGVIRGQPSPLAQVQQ

[20] = target: RAC-alpha serine/threonine-protein kinase (Mus musculus) (UniProt P31750); experiment: Inhibition of RANKL-induced AKT phosphorylation in mouse BMDM cells assessed as ratio of phosphorylated AKT to AKT at 10 uM preincubated for 5 mins followed RANKL/M-CSF addition for 5 mins by Western blot analysis (reference value: 2.1); type: cell-based
Sequence of RAC-alpha serine/threonine-protein kinase (Mus musculus) (P31750 whole entry): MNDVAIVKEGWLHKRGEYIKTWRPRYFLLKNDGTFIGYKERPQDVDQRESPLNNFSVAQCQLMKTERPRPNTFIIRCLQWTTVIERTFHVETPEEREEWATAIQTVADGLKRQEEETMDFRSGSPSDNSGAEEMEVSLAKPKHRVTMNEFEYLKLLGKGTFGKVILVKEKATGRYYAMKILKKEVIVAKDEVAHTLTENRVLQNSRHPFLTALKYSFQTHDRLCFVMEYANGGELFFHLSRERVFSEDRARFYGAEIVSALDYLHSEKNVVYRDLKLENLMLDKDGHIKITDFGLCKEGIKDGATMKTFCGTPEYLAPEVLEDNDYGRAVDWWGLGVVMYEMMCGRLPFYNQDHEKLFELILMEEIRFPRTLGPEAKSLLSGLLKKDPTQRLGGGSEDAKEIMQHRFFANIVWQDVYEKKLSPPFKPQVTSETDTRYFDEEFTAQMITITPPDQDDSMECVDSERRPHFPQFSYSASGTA

[21] = target: T1, NF-kappa-B inhibitor alpha (Mus musculus) (UniProt Q9Z1E3); experiment: Inhibition of RANKL-induced IkBalpha phosphorylation in mouse BMDM cells at 10 uM preincubated for 5 mins followed RANKL/M-CSF addition for 5 mins by Western blot analysis; type: cell-based
T1 sequence (whole entry): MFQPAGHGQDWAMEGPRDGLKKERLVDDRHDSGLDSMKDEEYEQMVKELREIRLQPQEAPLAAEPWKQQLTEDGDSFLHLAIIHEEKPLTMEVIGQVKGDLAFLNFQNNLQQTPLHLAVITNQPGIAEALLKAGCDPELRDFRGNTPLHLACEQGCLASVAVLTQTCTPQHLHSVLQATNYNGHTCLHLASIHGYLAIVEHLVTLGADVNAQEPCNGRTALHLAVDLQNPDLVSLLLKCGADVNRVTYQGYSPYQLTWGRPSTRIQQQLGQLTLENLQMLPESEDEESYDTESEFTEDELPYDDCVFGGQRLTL

Mus musculus [22] = experiment: Osteogenic activity in ICR mouse calvarial bone implanted with collagen sponges containing 10 mM compound incubated for 2 weeks assessed as increase in bone volume relative to control; type: functional
SMAD1/5/9 (Mus musculus) [23] = target: T2, SMAD1/5/9 (Mus musculus) (UniProt P70340+P97454+Q9JIW5); experiment: Activation of Smad1/5/8 in mouse C2C12 cells assessed as increase in BMP2-stimulated OPN mRNA expression at 10 uM preincubated with cells followed by BMP2 addition after 3 days by real-time PCR analysis; type: cell-based
C2C12 [24] = experiment: Increase in BMP2-induced BMP7 protein expression in mouse C2C12 cells assessed as ratio of BMP7 to actin at 10 uM measured on day 6 by Western blot analysis (reference value: 2.4); type: functional
SMAD1/5/9 (Mus musculus) [25] = target: T2, SMAD1/5/9 (Mus musculus); experiment: Increase in BMP2-induced Smad1/5/8 nuclear translocation in mouse C2C12 cells assessed as ratio of Smad1/5/8 to lamin B1 in nuclear fraction at 10 uM preincubated with cells followed by BMP2 addition for 4 hrs by Western blot analysis (reference value: 1.5); type: cell-based
C2C12 [26] = experiment: Increase in BMP2-induced BMP4 mRNA expression in mouse C2C12 cells at 10 uM measured on day 3 by real-time PCR analysis; type: functional, cell-based
C2C12 [27] = experiment: Increase in BMP2-induced BMP2 mRNA expression in mouse C2C12 cells at 10 uM measured on day 3 by real-time PCR analysis; type: functional, cell-based
C2C12 [28] = experiment: Increase in BMP2-induced BMP9 mRNA expression in mouse C2C12 cells at 10 uM measured on day 3 by real-time PCR analysis; type: functional, cell-based
SMAD1/5/9 (Mus musculus) [29] = target: T2, SMAD1/5/9 (Mus musculus); experiment: Activation of Smad1/5/8 in mouse C2C12 cells assessed as increase in BMP2-stimulated […] mRNA expression at 10 uM preincubated with cells followed by BMP2 addition after 3 days by real-time PCR analysis; type: cell-based
C2C12 [30] = experiment: Increase in BMP2-induced BMP7 mRNA expression in mouse C2C12 cells at 10 uM measured on day 3 by real-time PCR analysis; type: functional, cell-based
SMAD1/5/9 (Mus musculus) [31] = target: T2, SMAD1/5/9 (Mus musculus); experiment: Increase in BMP2-induced Smad1/5/8 phosphorylation in mouse C2C12 cells assessed as ratio of phosphorylated Smad1/5/8 to Smad1/5/8 in nuclear fraction at 10 uM preincubated with cells followed by BMP2 addition for 4 hrs by Western blot analysis (reference value: 1.2); type: cell-based
C2C12 [32] = experiment: Induction of osteoblast differentiation in mouse C2C12 cells assessed as increase in BMP2-induced ALP activity preincubated with cells after 3 days using p-nitrophenyl phosphate as substrate; type: functional, cell-based
Mus musculus [33] = experiment: Osteogenic activity in ICR mouse calvarial bone implanted with collagen sponges containing 10 mM compound incubated for 2 weeks assessed as increase in woven bone formation near periosteum of the calvarial bone by hematoxylin and eosin staining based assay relative to control; type: functional
SMAD1/5/9 (Mus musculus) [34] = target: T2, SMAD1/5/9 (Mus musculus); experiment: Increase in BMP2-induced Smad1/5/8 nuclear translocation in mouse C2C12 cells assessed as ratio of Smad1/5/8 to actin in cytosol fraction at 10 uM preincubated with cells followed by BMP2 addition for 4 hrs by Western blot analysis (reference value: 0.4); type: cell-based
SMAD1/5/9 (Mus musculus) [35] = target: T2, SMAD1/5/9 (Mus musculus); experiment: Activation of Smad1/5/8 in mouse C2C12 cells assessed as increase in BMP2-stimulated Runx2 mRNA expression at 10 uM preincubated with cells followed by BMP2 addition after 3 days by real-time PCR analysis; type: cell-based
C2C12 [36] = experiment: Increase in BMP2-induced BMP6 mRNA expression in mouse C2C12 cells at 10 uM measured on day 3 by real-time PCR analysis; type: functional, cell-based
C2C12 [37] = experiment: Induction of BMP2-induced osteoblast differentiation in mouse C2C12 cells preincubated with cells after 3 days by […] assay; type: functional, cell-based
C2C12 [38] = experiment: Increase in BMP2-induced BMP2 protein expression in mouse C2C12 cells assessed as ration of BMP2 to actin at 10 uM measured on day 3 by Western blot analysis (reference value: 1.4); type: functional
Mus musculus [39] = species: Mus musculus; experiment: Cytotoxicity against mouse BMDM cells assessed as reduction in cell viability at 30 uM after 3 days in presence of M-CSF by CCK-8 assay; type: toxicity, cell-based; conditions: 72 h

SMILES | inhibition (BMDM [1]) | fold change (FC) [2] | fold change (FC) [3] | fold change (FC) [4] | inhibition (BMDM [5]) | fold change (FC) [6] | inhibition (BMDM [7]) | fold change (FC) [8] | inhibition (BMDM [9]) | Activity (C2C12 [10]) | inhibition (BMDM [11]) | inhibition (BMDM [12]) | inhibition (BMDM [13]) | Activity (Mus musculus [14]) | inhibition (BMDM [15]) | Activity (Mus musculus [16]) | fold change (FC) [17] | inhibition (BMDM [18]) | inhibition (Osteoclast) | fold change (FC) [19] | other results
COc1cccc(OC)c1C(=O)c1c(O)cc(C)c(OC)c1C(=O)Cc1c(OC)c(C)cc2oc3cccc(OC)c3c(=O)c12 | Active | 85 | 8.2 | 3.3 | Active | 2.4 | Active | 2.6 | Active | Active | Active | Active | Active | Non-Toxic | Active | Non-Toxic | 3.7 | Active | Dose-dependent effect | 2.2 | fold change (FC) [20]: 1.7; inhibition [21]: Active
COc1cccc(OC)c1C(=O)c1c(O)cc(C)c(OC)c1C1=C(c2c(OC)cccc2OC)c2c(O)cc(C)c(OC)c2C1=O | Active | 175 | 13.2 | 3.2 | Active | 5.5 | Active | 2.8 | Active | Active | Active | Active | Active | Non-Toxic | Active | Non-Toxic | 4.3 | Active | Dose-dependent effect | 2.9 | fold change (FC) (Mus musculus [22]): 2.7; Activity (SMAD1/5/9 (Mus musculus) [23]): Active; fold change (FC) (C2C12 [24]): 3.1; fold change (FC) (SMAD1/5/9 (Mus musculus) [25]): 2.4; Activity (C2C12 [26]): Active; Activity (C2C12 [27]): Active; Activity (C2C12 [28]): Active; Activity (SMAD1/5/9 (Mus musculus) [29]): Active; Activity (C2C12 [30]): Active; fold change (FC) (SMAD1/5/9 (Mus musculus) [31]): 1.7; Activity (C2C12 [32]): Dose-dependent effect; Activity (Mus musculus [33]): Active; fold change (FC) (SMAD1/5/9 (Mus musculus) [34]): 0.1; Activity (SMAD1/5/9 (Mus musculus) [35]): Active; Activity (C2C12 [36]): Active; Activity (C2C12 [37]): Dose-dependent effect; fold change (FC) [20]: 2; fold change (FC) (C2C12 [38]): 3.8; inhibition [21]: Active
COc1cccc(OC)c1C(=O)c1c(O)cc(C)c(OC)c1CC(=O)c1c(OC)c(C)cc(O)c1C(=O)c1c(OC)cccc1OC | Active | 124 | 20.2 | 2.1 | Active | 3.5 | Active | 1.7 | Active | Active | Active | Active | Active | Non-Toxic | Active | Non-Toxic | 4.2 | Active | Dose-dependent effect | 2.7 | Activity (Mus musculus [39]): Toxic; fold change (FC) [20]: 1.1; inhibition [21]: Active

From ChEMBL document CHEMBL3861969, “Acredinone C and the Effect of Acredinones on Osteoclastogenic and Osteoblastogenic Activity” (J Nat Prod, 2016)
